Read-outs that look alike come from different tables or passages of the source.
How the values were obtained:
Assay type in all cases: binding
[1] = molecular target: T1, HeLa cell extract proteins (Homo sapiens, UniProt P04083)
T1 construct: endogenous in cells; host or cells: HeLa cell extract
T1 sequence (P04083 1-346): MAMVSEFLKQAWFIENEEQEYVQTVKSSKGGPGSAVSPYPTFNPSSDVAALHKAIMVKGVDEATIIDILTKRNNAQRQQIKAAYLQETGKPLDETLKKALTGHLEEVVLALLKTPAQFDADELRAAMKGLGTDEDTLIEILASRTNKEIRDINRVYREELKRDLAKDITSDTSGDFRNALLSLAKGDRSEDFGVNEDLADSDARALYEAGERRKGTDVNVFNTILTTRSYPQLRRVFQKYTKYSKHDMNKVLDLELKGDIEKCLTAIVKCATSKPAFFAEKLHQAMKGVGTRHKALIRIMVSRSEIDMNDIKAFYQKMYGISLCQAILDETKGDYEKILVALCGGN

[2] = molecular target: T2, HeLa cell extract proteins (Homo sapiens, UniProt P30086)
T2 construct: endogenous in cells; host or cells: HeLa cell extract

[3] = molecular target: T3, HeLa cell extract proteins (Homo sapiens, UniProt P32320)
T3 construct: endogenous in cells; host or cells: HeLa cell extract

[4] = molecular target: T4, HeLa cell extract proteins (Homo sapiens, UniProt P62979)
T4 construct: endogenous in cells; host or cells: HeLa cell extract

[5] = molecular target: T5, HeLa cell extract proteins (Homo sapiens, UniProt Q16658)
T5 construct: endogenous in cells; host or cells: HeLa cell extract

[6] = molecular target: T6, HeLa cell extract proteins (Homo sapiens, UniProt Q6JQN1)
T6 construct: endogenous in cells; host or cells: HeLa cell extract
T6 sequence (Q6JQN1 1-1059): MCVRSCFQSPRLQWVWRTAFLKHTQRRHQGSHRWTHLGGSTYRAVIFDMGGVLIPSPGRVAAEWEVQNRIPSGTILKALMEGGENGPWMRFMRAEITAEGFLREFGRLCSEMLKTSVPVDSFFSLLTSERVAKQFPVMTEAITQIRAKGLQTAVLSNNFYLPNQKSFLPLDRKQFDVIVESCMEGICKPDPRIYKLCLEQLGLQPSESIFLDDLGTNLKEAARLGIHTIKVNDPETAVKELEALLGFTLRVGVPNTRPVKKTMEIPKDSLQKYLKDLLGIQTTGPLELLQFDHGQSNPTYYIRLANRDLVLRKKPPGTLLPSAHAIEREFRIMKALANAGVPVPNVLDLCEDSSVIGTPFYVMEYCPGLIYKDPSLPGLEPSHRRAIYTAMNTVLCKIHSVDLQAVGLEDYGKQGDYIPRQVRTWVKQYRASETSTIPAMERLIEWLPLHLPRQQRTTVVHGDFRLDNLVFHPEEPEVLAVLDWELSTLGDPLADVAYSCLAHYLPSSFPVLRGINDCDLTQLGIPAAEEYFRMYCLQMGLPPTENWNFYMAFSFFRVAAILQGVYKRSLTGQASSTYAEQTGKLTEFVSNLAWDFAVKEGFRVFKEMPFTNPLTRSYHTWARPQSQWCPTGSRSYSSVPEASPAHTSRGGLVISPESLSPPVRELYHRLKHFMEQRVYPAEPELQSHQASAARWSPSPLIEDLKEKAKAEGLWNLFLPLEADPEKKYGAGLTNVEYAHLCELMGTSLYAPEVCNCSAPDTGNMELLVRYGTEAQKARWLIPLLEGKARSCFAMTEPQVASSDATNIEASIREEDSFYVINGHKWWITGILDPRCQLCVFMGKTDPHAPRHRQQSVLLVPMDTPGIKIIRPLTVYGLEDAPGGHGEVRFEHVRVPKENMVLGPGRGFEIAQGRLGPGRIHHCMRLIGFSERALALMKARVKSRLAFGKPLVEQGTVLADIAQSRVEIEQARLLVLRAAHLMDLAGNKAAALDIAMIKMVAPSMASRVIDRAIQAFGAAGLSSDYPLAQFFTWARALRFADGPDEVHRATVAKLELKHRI

[7] = molecular target: T7, HeLa cell extract proteins (Homo sapiens, UniProt Q6ZN16)
T7 construct: endogenous in cells; host or cells: HeLa cell extract
T7 sequence (Q6ZN16 1-1313): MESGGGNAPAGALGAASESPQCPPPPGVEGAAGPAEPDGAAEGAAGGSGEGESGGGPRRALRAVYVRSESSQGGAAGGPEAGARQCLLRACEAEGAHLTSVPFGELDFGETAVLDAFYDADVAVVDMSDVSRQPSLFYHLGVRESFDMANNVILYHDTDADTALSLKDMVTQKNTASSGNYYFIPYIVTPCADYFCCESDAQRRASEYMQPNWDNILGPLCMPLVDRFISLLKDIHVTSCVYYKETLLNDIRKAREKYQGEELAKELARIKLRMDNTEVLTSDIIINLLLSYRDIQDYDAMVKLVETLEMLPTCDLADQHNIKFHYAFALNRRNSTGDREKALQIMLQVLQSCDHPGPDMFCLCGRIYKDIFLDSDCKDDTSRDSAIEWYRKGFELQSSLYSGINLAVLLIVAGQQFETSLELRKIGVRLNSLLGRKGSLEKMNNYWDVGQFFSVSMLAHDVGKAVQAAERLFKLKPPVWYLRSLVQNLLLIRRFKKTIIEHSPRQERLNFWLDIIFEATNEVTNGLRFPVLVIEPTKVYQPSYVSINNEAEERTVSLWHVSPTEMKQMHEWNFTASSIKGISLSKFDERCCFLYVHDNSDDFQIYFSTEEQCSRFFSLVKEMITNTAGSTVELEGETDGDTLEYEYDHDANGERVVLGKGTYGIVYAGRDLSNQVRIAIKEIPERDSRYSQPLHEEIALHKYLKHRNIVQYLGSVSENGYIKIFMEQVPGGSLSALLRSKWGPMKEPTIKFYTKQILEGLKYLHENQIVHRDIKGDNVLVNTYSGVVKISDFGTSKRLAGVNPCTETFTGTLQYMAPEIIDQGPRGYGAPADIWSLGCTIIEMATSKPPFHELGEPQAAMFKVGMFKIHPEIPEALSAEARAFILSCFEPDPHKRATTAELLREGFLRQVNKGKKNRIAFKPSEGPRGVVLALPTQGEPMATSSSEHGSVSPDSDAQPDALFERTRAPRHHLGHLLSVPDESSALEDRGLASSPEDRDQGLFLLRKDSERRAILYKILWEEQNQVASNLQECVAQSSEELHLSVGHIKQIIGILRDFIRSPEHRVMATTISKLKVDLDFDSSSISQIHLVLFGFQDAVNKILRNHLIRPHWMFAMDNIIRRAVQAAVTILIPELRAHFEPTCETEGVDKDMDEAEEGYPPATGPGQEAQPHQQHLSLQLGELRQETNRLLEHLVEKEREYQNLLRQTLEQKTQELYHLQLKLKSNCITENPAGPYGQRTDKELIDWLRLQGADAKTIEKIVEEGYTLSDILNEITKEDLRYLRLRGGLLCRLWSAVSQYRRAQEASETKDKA

T2 sequence (P30086 whole entry): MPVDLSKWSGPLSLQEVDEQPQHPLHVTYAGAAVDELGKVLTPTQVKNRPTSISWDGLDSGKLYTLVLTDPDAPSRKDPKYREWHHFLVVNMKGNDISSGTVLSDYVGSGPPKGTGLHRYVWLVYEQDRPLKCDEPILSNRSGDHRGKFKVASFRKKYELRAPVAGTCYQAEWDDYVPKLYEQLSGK
T3 sequence (P32320 whole entry): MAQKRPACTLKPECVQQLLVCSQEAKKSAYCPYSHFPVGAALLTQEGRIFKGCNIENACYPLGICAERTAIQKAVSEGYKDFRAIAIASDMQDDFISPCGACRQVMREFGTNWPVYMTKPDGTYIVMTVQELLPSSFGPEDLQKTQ

| SMILES | fold changes relative to vehicle control ([1]; protein ANXA1, HeLa) | fold changes relative to vehicle control ([2]; protein PEBP1, HeLa) | fold changes relative to vehicle control ([3]; captured protein CDA, HeLa) | fold changes relative to vehicle control ([4]; protein RPS27A, HeLa) | fold changes relative to vehicle control ([5]; protein FSCN1, HeLa) | fold changes relative to vehicle control ([6]; captured protein ACAD10, HeLa) | fold changes relative to vehicle control ([7]; captured protein MAP3K15, HeLa) | fold changes relative to vehicle control ([2]; HeLa, protein PEBP1) | fold changes relative to vehicle control ([3]; HeLa, captured protein CDA) | fold changes relative to vehicle control ([4]; HeLa, protein RPS27A (UBIQUITIN AND RIBOSOMAL PROTEIN S27A PRECURSOR)) | fold changes relative to vehicle control ([6]; protein ACAD10, HeLa) | fold changes relative to vehicle control ([7]; HeLa, protein MAP3K15) | fold changes relative to vehicle control [4] | fold changes relative to vehicle control [1] | fold changes relative to vehicle control [2] | fold changes relative to vehicle control [3] | fold changes relative to vehicle control [5] | fold changes relative to vehicle control [6] | fold changes relative to vehicle control [7] |
| --- | --- | --- | --- | --- | --- | --- | --- | --- | --- | --- | --- | --- | --- | --- | --- | --- | --- | --- | --- |
| CCCCCCOc1cccc(Cc2cnc(N)nc2N)c1 [compound 2] | 1.86 | 1.9 | 0.88 | 1.5 | 1.96 | 0.84 | 1.02 |  |  |  |  |  |  |  |  |  |  |  |  |
| NCCOCCOCC(=O)Nc1nc2ncc(CNc3ccc(C(=O)NC(CCC(=O)O)C(=O)O)cc3)nc2c(=O)[nH]1 (stereo not shown) [compound 6] | 1.24 |  |  |  | 1.42 |  |  | 1.42 | 0.89 | 1.51 | 0.76 | 1.03 |  |  |  |  |  |  |  |
| CCCCCCOc1ccc(Cc2cnc(N)nc2N)cc1 [compound 1] | 1.21 | 1.23 | 0.91 | 1.24 | 1.28 | 0.84 | 1.03 |  |  |  |  |  |  |  |  |  |  |  |  |
| Nc1nc2c(c(=O)[nH]1)N(C=O)C(CNc1ccc(C(=O)N[C@@H](CCC(=O)O)C(=O)O)cc1)CN2 (stereo partly shown) [LEU, leucovorin] | 0.81 |  |  |  | 0.95 |  |  | 0.89 | 1.07 |  | 0.96 | 1 | 1.29 |  |  |  |  |  |  |
| NCCCNc1ccc(C(=O)NC(CCC(=O)O)C(=O)O)cc1 (stereo not shown) [compound 7] | 0.87 |  |  |  | 0.78 |  |  | 1.07 | 1.63 |  | 0.95 | 1.1 | 1.22 |  |  |  |  |  |  |
| Nc1nc2[nH]cc(CCc3ccc(C(=O)N[C@@H](CCC(=O)O)C(=O)O)cc3)c2c(=O)[nH]1 [PTX, pemetrexed] |  |  |  |  |  |  |  |  |  |  |  |  | 1.29 | 0.98 | 1.14 | 1.06 | 1.08 | 0.71 | 1.07 |
| Nc1nc2cccc(-c3ccccc3)c2n1Cc1ccc(Cl)c(Cl)c1 [compound 3] | 0.86 | 1.08 | 0.94 | 1.01 | 0.96 | 0.94 | 1.01 |  |  |  |  |  |  |  |  |  |  |  |  |
